From the supplement of paper PMC10307832

Key:
Assay in all cases: relative viability (nuclei count vs DMSO), 5 days (fraction); higher = more cells survive
[1] = compound: C=CC(=O)Nc1cc(-n2c(=O)ccc3cnc4ccc(-c5ccc(NS(C)(=O)=O)cc5)cc4c32)ccc1C [BMX-IN-1] + O=C(CCCCCCC(=O)Nc1ccccc1)NO [Vorinostat] (partner 1 µM)
Summary of the method: (§1)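 Lung cancer cell lines were seeded in 1536-well plates and dosed by pin tool the next day, with either a single drug or a fixed anchor-drug dose combined with five library-drug doses (not always all listed) spaced in √10 steps. Five days later, one step fixed the cells and stained their nuclei (final 0.05% Triton X-100, 1% formaldehyde, 1 ug/ml Hoechst), and nuclei were counted on 4× images. Relative viability is the nuclei count in treated wells divided by the count in vehicle wells, and each value is the median of duplicate plates.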

[2] = compound: C=CC(=O)N1CCC[C@@H](n2nc(-c3ccc(Oc4ccccc4)cc3)c3c(N)ncnc32)C1 [Ibrutinib] + O=C(c1cc(Cc2n[nH]c(=O)c3ccccc23)ccc1F)N1CCN(C(=O)C2CC2)CC1 [Olaparib] (partner 8 µM)
Summary of the method: as §1

[3] = compound: C=CC(=O)N1CCC[C@@H](n2nc(-c3ccc(Oc4ccccc4)cc3)c3c(N)ncnc32)C1 [Ibrutinib] + NC(=O)Nc1cc(-c2cccc(F)c2)sc1C(=O)N[C@H]1CCCNC1 [AZD7762] (partner 0.2 µM)
Summary of the method: as §1

[4] = compound: C=CC(=O)N1CCC[C@@H](n2nc(-c3ccc(Oc4ccccc4)cc3)c3c(N)ncnc32)C1 [Ibrutinib] + O=C(CCCCCCC(=O)Nc1ccccc1)NO [Vorinostat] (partner 1 µM)
Summary of the method: as §1

Cell Line	relative viability ([1]; first compound 0.02 µM)	relative viability ([1]; first compound 0.2 µM)	relative viability ([1]; first compound 0.6325 µM)	relative viability ([1]; first compound 2 µM)	relative viability ([2]; first compound 0.005 µM)	relative viability ([2]; first compound 0.01581 µM)	relative viability ([2]; first compound 0.1581 µM)	relative viability ([2]; first compound 0.5 µM)	relative viability ([3]; first compound 0.005 µM)	relative viability ([3]; first compound 0.01581 µM)	relative viability ([3]; first compound 0.05 µM)	relative viability ([3]; first compound 0.1581 µM)	relative viability ([3]; first compound 0.5 µM)	relative viability ([4]; first compound 0.005 µM)	relative viability ([4]; first compound 0.01581 µM)	relative viability ([4]; first compound 0.1581 µM)	relative viability ([4]; first compound 0.5 µM)	relative viability ([2]; first compound 0.05 µM)	relative viability ([4]; first compound 0.05 µM)
NCI-H358	0.816	0.811	0.788	0.652	0.469	0.508	0.747	0.248	0.404	0.349	0.282	0.515	0.29	0.606	0.598	0.809	0.283		
NCI-H1395	0.764	0.708	0.942	0.746	0.475	0.472	0.468	0.449	0.405	0.403	0.387	0.404	0.413	0.529	0.79	0.516	0.798	0.469	0.642
NCI-H838	0.827	0.64	0.728	0.73	0.794	0.693	0.866	0.825	0.739	0.876	0.985	0.946	0.943	0.786	0.688	0.77	0.717	0.849	0.762
201T	1.2	1	1.05	1.05	0.844	0.848	0.816	0.793	0.539	0.583	0.623	0.66	0.553	0.94	0.982	0.883	0.889	0.841	0.969
NCI-H1437	0.964	0.866	0.896	0.949	0.681	0.626	0.641	0.628	1.12	1.12	1.08	1.08	1.16	0.865	0.919	0.854	1.02	0.721	0.908
NCI-H1975	0.707	0.754	0.737	0.703	0.886	0.775	0.802	0.482	0.647	0.556	0.517	0.522	0.342	0.759	0.556	0.792	0.324	0.688	0.649
RERF-LC-KJ	0.77	0.734	0.824	0.45	0.994	0.863	0.965	0.868	0.464	0.943	0.845	0.896	0.714	0.631	0.703	0.668	0.659	0.89	0.593
